Like-named read-outs stand apart in the source and are kept apart here. Square brackets hold non-standard residues; d marks the D form. Ends that are not written are not given here. Peptide text beside a SMILES is read from it. Nspe = C[C@H](NCC(=O)O)c1ccccc1; NhArg = N=C(N)NCCCCNCC(=O)O; Nphe = O=C(O)CNCc1ccccc1; Nlys = NCCCCNCC(=O)O
Assays:
[1] = Skin cell toxicity assay with HaCaT (alamarBlue); format: cell-based, human; conditions: human, HaCaT cells (keratinocytes), ED50 HaCaT
Method: (§1) The activity of our peptoid library was assessed against both bacterial and mammalian cells to gain a broader understanding of the factors that lead to effective and selective antimicrobial peptoids. We screened for broad-spectrum antibacterial activity against Gram-negative (Escherichia coli and Pseudomonas aeruginosa) and Gram-positive (Staphylococcus aureus and S. epidermidis) bacteria. The toxicity of the library was also assessed against two mammalian cell lines; HaCaT spontaneously transformed aneuploid keratinocytes were employed to model toxicity against human skin cells and HepG2, a cell line derived from a human liver carcinoma, were used as a study on polarised human hepatocytes. Detailed methods for these assays can be found in the ESI. ^‡ […]
(§2) Please note – ED50, the median effective dose, was defined as the dose that kills 50% of cells.
(§3) Cytotoxicity analyses were performed in 96-well plates (Costar, Fisher Scientific) using alamarBlue® (Invitrogen) for cell viability detection using a modified protocol as described previously. HepG2 or HaCaT cells were subcultured at 37 °C, 5% CO2 in DMEM high glucose supplemented with heat-inactivated foetal bovine sera (FBS, 10%; Biosera Ltd) and penicillin/streptomycin (P/S, 1%). Cells were counted using a Neubauer Improved Haemocytometer. HepG2 cells were seeded 1 day prior to treatment in 96 well plates at a concentration of 2 × 10^5 cells per mL in 100 μL of medium (2 × 10^4 cells per well). Then cells were pre-incubated with the compounds in triplicate in a dilution series in triplicate from 2–100 μM (5 mM stock solutions in DMSO diluted from 100 μM to 3 μM; untreated cells with DMSO as a negative control) in 50 μl of the media for 1 hour. Afterwards, 40 μL were removed from each well before the addition of 90 μL of the media, followed by incubation for 24 hours at 37 °C, 5% CO2. Then, 10 μL of alamarBlue® (Invitrogen) was added to each well before a 2 hour incubation prior to assessing cell viability using a fluorescent plate reader (Biotek; Ex 560 nm/Em 600 nm). All data were measured in triplicate on a minimum of two occasions to ensure a robust data set was collected. The ED50 values were calculated from the dose response results achieved from the serial dilutions. […]
(§4) Cells were counted using a Neubauer Improved
(§5) Haemocytometer. […]
(§6) µM to 3 µM; untreated cells with DMSO as a negative control) in 50 µl of the media for 1 hour.
(§7) Afterwards, 40 µL were removed from each well before the addition of 90 µL of the media, followed by incubation for 24 hours at 37 °C, 5% CO2. Then, 10 µL of alamarBlue® (Invitrogen) was added to each well before a 2 hour incubation prior to assessing cell viability using a fluorescent plate reader (Biotek; Ex 560 nm / Em 600 nm). All data was measured in triplicate on a minimum of two occasions to ensure a robust data set was collected. The ED50 values were calculated from the dose response results achieved from the serial dilutions.
(§8) Skin Cell Toxicity assay with HaCaT […]
(§9) alamarBlue® (Invitrogen) for cell viability detection. HaCaT cells were subcultured at 37 °C, 5% CO2 in DMEM high glucose supplemented with heat-inactivated foetal bovine sera (FBS, 10%; Biosera Ltd) and penicillin/streptomycin (P/S, 1%). Cells were counted using a Neubauer Improved Haemocytometer. HaCaT cells were seeded in the plates 24 hours prior to treatment in 96 well plates at a concentration of 2x10^5 cells/mL in 100 µL of medium (2x10^4 cells/well).
(§10) Empty wells were filled with 100 µL PBS. After 24 hours, cells were incubated with the compounds in a dilution series in triplicate from 2 – 100 µM (5 mM stock solutions in DMSO diluted from 100 µM to 3 µM; Amphotericin B was used as a positive control and untreated cells with DMSO as a negative control) in 50 µL of the media for 1 hour. Afterwards, 40 µl was removed from each well, 90 µL of medium was added to each well and the cells incubated for 24 hours at 37 °C, 5% CO2. 10 µL of alamarBlue® (Invitrogen) was added to each well before […]

[2] = tested on: HaCaT cells; assay: Skin cell toxicity assay with HaCaT (alamarBlue); format: cell-based, human; conditions: human, HaCaT cells (keratinocytes), 24 h
Method: as §1, §2, §3, §4, §5, §6, §7, §8, §9, §10

[3] = tested on: Escherichia coli K-12 wild-type strain (W3110/ATCC27325); format: cell-based; conditions: lowest concentration completely inhibiting growth, 37 °C, 16 h; range 2–100 μM
Method: (§11) Escherichia coli K-12 wild-type strain (W3110/ATCC27325, F^–, λ^–, rpoS(Am), rph-1, Inv(rrnD-rrnE)), Pseudomonas aeruginosa PA01 (ATCC 15692) Staphylococcus aureus (3R7089 strain Oxford/ATCC9144) and Staphylococcus epidermidis (laboratory strain from clinical isolate) were selected for bacteriological studies as representative Gram-negative (E. coli and P. aeruginosa) and Gram-positive (S. aureus and S. epidermidis) species. Bacterial cultures were prepared by streaking bacterial strains onto LB agar plates with an inoculation loop and incubated overnight at 37 °C. A single colony was selected and placed in 5 mL of Iso-sensitest broth (Oxoid, ThermoScientific) and incubated with shaking for 16–18 h at 37 °C to provide liquid cultures for testing.
(§12) MIC values were obtained according to the protocol described by J. M. Andrews et al.[58] and were conducted in 96-well plates (Sarstedt). Bacteria were grown from overnight cultures in Iso-sensitest broth to an A650nm of 0.07 equivalent to a 0.5 MacFarland standard (240 μM BaCl2 in 0.18 M H2SO4). This culture was diluted ten-fold with Iso-sensitest broth before use. Peptoids were initially dissolved in DMSO (5 mM) and diluted further in Iso-sensitest broth to achieve a concentration range of 4–200 μM using 2-fold serial dilutions. 50 μl of inoculum and 50 μl of peptoid solution were added to each test well (final concentration range of 2–100 μM). Experiments were performed in triplicate. A positive control for bacterial growth contained only the inoculum and Iso-sensitest broth. Other controls contained the inoculum and serial dilutions of ampicillin (from 250 μg mL^–1 to 2 μg mL^–1), serial dilutions of DMSO and the inoculum to confirm no inhibitory effect on bacterial growth, and Iso-sensitest broth alone as a sterile control. […] Quantitative data was attained from absorbance values using a Biotek Synergy H4 plate reader.
(§13) Antibacterial MIC determination
as §11, with “(W3110 / ATCC27325, F-, λ-,” for “(W3110/ATCC27325, F^–, λ^–,”, “Oxford / ATCC9144)” for “Oxford/ATCC9144)”, “°C.” for “°C. A single colony was selected and placed in 5 mL of Iso-sensitest broth (Oxoid, ThermoScientific) and incubated with shaking for 16–18 h at 37 °C to provide liquid cultures for testing.”
(§14) A single colony was selected and placed in 5 mL of Iso-sensitest broth (Oxoid, ThermoScientific) and incubated with shaking for 16-18 h at 37 °C to provide liquid […]
(§15) MIC values were obtained according to the protocol described by J. M. Andrews et al.1 and were conducted in 96-well plates (Sarstedt). Bacteria were grown from overnight cultures in Iso-sensitest broth to an A650nm of 0.07 equivalent to a 0.5 MacFarland standard (240 μM BaCl2 in 0.18 M H2SO4). This culture was diluted ten-fold with Iso-sensitest broth before use. Peptoids were initially dissolved in DMSO (5 mM) and diluted further in Iso-sensitest broth to achieve a concentration range of 4 – 200 µM using 2-fold serial dilutions. 50 μl of inoculum and 50 μl of peptoid solution were added to each test well (final concentration range of 2 – 100 µM). Experiments were performed in triplicate. A positive control for bacterial growth contained only the inoculum and Iso-sensitest broth. Other controls contained the inoculum and serial dilutions of ampicillin (from 250 µg/mL to 2 µg/mL), serial dilutions of DMSO and the inoculum to confirm no inhibitory effect on bacterial growth, and Iso-sensitest broth alone as a sterile control. […]
(§16) growth after incubation at 37 °C for 16 h with shaking. Quantitative data was attained from absorbance values using a Biotek Synergy H4 plate reader.

[4] = tested on: Pseudomonas aeruginosa PA01 (ATCC 15692); format: cell-based; conditions: lowest concentration completely inhibiting growth, 37 °C, 16 h; range 2–100 μM
Method: as §11, §12, §13
as §11, with “(W3110 / ATCC27325, F-, λ-,” for “(W3110/ATCC27325, F^–, λ^–,”, “Oxford / ATCC9144)” for “Oxford/ATCC9144)”, “°C.” for “°C. A single colony was selected and placed in 5 mL of Iso-sensitest broth (Oxoid, ThermoScientific) and incubated with shaking for 16–18 h at 37 °C to provide liquid cultures for testing.”
as §14, §15, §16

[5] = tested on: Staphylococcus aureus (3R7089 strain Oxford/ATCC9144); format: cell-based; conditions: lowest concentration completely inhibiting growth, 37 °C, 16 h; range 2–100 μM
Method: as §11, §12, §13
as §11, with “(W3110 / ATCC27325, F-, λ-,” for “(W3110/ATCC27325, F^–, λ^–,”, “Oxford / ATCC9144)” for “Oxford/ATCC9144)”, “°C.” for “°C. A single colony was selected and placed in 5 mL of Iso-sensitest broth (Oxoid, ThermoScientific) and incubated with shaking for 16–18 h at 37 °C to provide liquid cultures for testing.”
as §14, §15, §16

[6] = tested on: Staphylococcus epidermidis (laboratory strain from clinical isolate); format: cell-based; conditions: lowest concentration completely inhibiting growth, 37 °C, 16 h; range 2–100 μM
Method: as §11, §12, §13
as §11, with “(W3110 / ATCC27325, F-, λ-,” for “(W3110/ATCC27325, F^–, λ^–,”, “Oxford / ATCC9144)” for “Oxford/ATCC9144)”, “°C.” for “°C. A single colony was selected and placed in 5 mL of Iso-sensitest broth (Oxoid, ThermoScientific) and incubated with shaking for 16–18 h at 37 °C to provide liquid cultures for testing.”
as §14, §15, §16

[7] = tested on: E. coli; design: method as in PMID 10681325, PMID 3299384; conditions: cited from earlier work
[8] = tested on: S. epidermidis; design: method as in PMID 10681325, PMID 3299384; conditions: cited from earlier work
[9] = tested on: S. aureus; design: method as in PMID 10681325, PMID 3299384; conditions: cited from earlier work
[10] = tested on: E. coli; design: method as in PMID 10681325; conditions: cited from earlier work

With `C[C@@H](c1ccccc1)N(CC(N)=O)C(=O)CN(C(=O)CN(CCCCNC(=N)N)C(=O)CN(C(=O)CN(C(=O)CN(CCCCNC(=N)N)C(=O)CN(C(=O)CN(C(=O)CN(CCCCN)C(=O)CN(C(=O)CN(C(=O)CNCCCCN)[C@@H](C)c1ccccc1)[C@@H](C)c1ccccc1)[C@@H](C)c1ccccc1)[C@@H](C)c1ccccc1)[C@@H](C)c1ccccc1)[C@@H](C)c1ccccc1)[C@@H](C)c1ccccc1` [Peptoid 41, (NLysNspeNspe)2(NhArgNspeNspe)2] (H-[Nlys][Nspe][Nspe][Nlys][Nspe][Nspe][NhArg][Nspe][Nspe][NhArg][Nspe][Nspe]-NH2) the CC50 at 24 h [1] was 100 µM, the “ED50 HaCaT” value [2] was over 100 µM and the “MIC E. coli” value [3] was 17 µM. The “MIC P. aeruginosa” value [4] was 34 µM and the “MIC S. aureus” value [5] was 17 µM.
With `N=C(N)NCCCCNCC(=O)N(CC(=O)N(CC(=O)N(CCCCNC(=N)N)CC(=O)N(CC(=O)N(CC(=O)N(CCCCNC(=N)N)CC(=O)N(CC(=O)N(CC(=O)N(CCCCNC(=N)N)CC(=O)N(CC(=O)N(CC(N)=O)Cc1ccccc1)Cc1ccccc1)Cc1ccccc1)Cc1ccccc1)Cc1ccccc1)Cc1ccccc1)Cc1ccccc1)Cc1ccccc1` [Peptoid 33, (NhArgNpheNphe)4] (H-[NhArg][Nphe][Nphe][NhArg][Nphe][Nphe][NhArg][Nphe][Nphe][NhArg][Nphe][Nphe]-NH2) the CC50 at 24 h [1] was 100 µM, the “ED50 HaCaT” value [2] was over 100 µM and the “MIC E. coli” value [3] was 6 µM. The “MIC P. aeruginosa” value [4] was 25 µM and the “MIC S. epidermidis” value [6] was 2 µM.
For Magainin 2, the “MIC E. coli” value [7] is given as 5 μg mL^–1, the “MIC E. coli” value ([7]; value in brackets, in μM) is given as 2 µM and the “MIC S. epidermidis” value [8] is given as 10 μg mL^–1. For the same molecule, the “MIC S. epidermidis” value ([8]; value in brackets, in μM) was 4 µM, the “MIC S. aureus” value [9] was 50 μg mL^–1 and the “MIC S. aureus” value ([9]; value in brackets, in μM) was 20 µM.
In the case of “cecropin A (KWKLFKKIEKVGQNIRDGIIKAGPAVAVVGQATQIAK; ends and bridges not checked; UniProt P01507 27-63, looked up) [natural antimicrobial peptide (AMP) described in the literature]”, the “concentration shown to kill 90% of E. coli” value [10] is listed as 2 µM.
